According to patent US11542225B2, “Lipids for use in lipid nanoparticle formulations” (ACUITAS THERAPEUTICS, INC., priority 2017, dated 2023):
Read-outs that look alike come from different tables or passages of the source.

Assays:
[1] = Determination of pKa of formulated lipids (TNS fluorescence assay in lipid nanoparticles); format: physicochemical
Source text: As described elsewhere, the pKa of formulated lipids was correlated with the effectiveness of LNPs for delivery of nucleic acids (see Jayaraman et al, Angewandte Chemie, International Edition (2012), 51(34), 8529-8533; Semple et al, Nature Biotechnology 28, 172-176 (2010)). In some embodiments, the preferred range of pKa was ˜5 to ˜7. […] Lipid nanoparticles comprising compound of structure (I)/DSPC/cholesterol/PEG-lipid (50/10/38.5/1.5 or 47.5:10:40.8:1.7 mol %) in PBS at a concentration of 0.4 mM total lipid were prepared using the in-line process as described in Example 1. TNS was prepared as a 100 μM stock solution in distilled water. Vesicles were diluted to 24 μM lipid in 2 mL of buffered solutions containing 10 mM HEPES, 10 mM MES, 10 mM ammonium acetate, and 130 mM NaCl, where the pH ranged from 2.5 to 11. An aliquot of the TNS solution was added to give a final concentration of 1 μM and following vortex mixing fluorescence intensity was measured at room temperature in a SLM Aminco Series 2 Luminescence Spectrophotometer using excitation and emission wavelengths of 321 nm and 445 nm. A sigmoidal best fit analysis was applied to the fluorescence data and the pKa was measured as the pH giving rise to half-maximal fluorescence intensity.

[2] = test system: luciferase expression in the liver; assay: Luciferase mRNA in vivo evaluation using lipid nanoparticle compositions; set-up: species or system mice; settings: novel lipids; values marked * in the 1.0 mg/kg column: dosed at 0.5 mg/kg; tail vein injection, 4 hours after administration
[3] = test system: luciferase expression in the liver; assay: as above; set-up: species or system mice; settings: for Liver Luc @ 0.3 mg/kg (ng luc/g liver) / Liver Luc @ 1.0 mg/kg (ng luc/g liver): novel lipids, tail vein injection, 4 hours after administration; for Liver Luc @ 0.3 mg/kg (ng luc/g liver): 0.3 mg mRNA/kg; for Liver Luc @ 1.0 mg/kg (ng luc/g liver): 1.0 mg mRNA/kg
Protocol: A lipid of structure (I), DSPC, cholesterol and PEG-lipid were solubilized in ethanol at a molar ratio of 50:10:38.5:1.5 or 47.5:10:40.8:1.7. Lipid nanoparticles (LNP) were prepared at a total lipid to mRNA weight ratio of approximately 10:1 to 30:1. Briefly, the mRNA was diluted to 0.2 mg/mL in 10 to 50 mM citrate buffer, pH 4. Syringe pumps were used to mix the ethanolic lipid solution with the mRNA aqueous solution at a ratio of about 1:5 to 1:3 (vol/vol) with total flow rates above 15 mL/min. The ethanol was then removed and the external buffer replaced with PBS by dialysis. Finally, the lipid nanoparticles were filtered through a 0.2 μm pore sterile filter.
Studies were performed in 6-8 week old female C57BL/6 mice (Charles River) 8-10 week old CD-1 (Harlan) mice (Charles River) according to guidelines established by an institutional animal cwere committee (ACC) and the Canadian Council on Animal Cwere (CCAC). Varying doses of mRNA-lipid nanoparticle were systemically administered by tail vein injection and animals euthanized at a specific time point (e.g., 4 hours) post-administration. Liver and spleen were collected in pre-weighed tubes, weights determined, immediately snap frozen in liquid nitrogen and stored at −80° C. until processing for analysis.
For liver, approximately 50 mg was dissected for analyses in a 2 mL FastPrep tubes (MP Biomedicals, Solon Ohio). ¼″ ceramic sphere (MP Biomedicals) was added to each tube and 500 μL of Glo Lysis Buffer—GLB (Promega, Madison Wis.) equilibrated to room temperature was added to liver tissue. Liver tissues were homogenized with the FastPrep24 instrument (MP Biomedicals) at 2×6.0 m/s for 15 seconds. Homogenate was incubated at room temperature for 5 minutes prior to a 1:4 dilution in GLB and assessed using SteadyGlo Luciferase assay system (Promega). Specifically, 50 μL of diluted twassue homogenate was reacted with 50 μL of SteadyGlo substrate, shaken for 10 seconds followed by 5 minute incubation and then quantitated using a CentroXS^3 LB 960 luminometer (Berthold Technologies, Germany). The amount of protein assayed was determined by using the BCA protein assay kit (Pierce, Rockford, Ill.). Relative luminescence units (RLU) were then normalized to total μg protein assayed. To convert RLU to ng luciferase a standard curve was generated with QuantiLum Recombinant Luciferase (Promega).
The FLuc mRNA (L-6107) from Trilink Biotechnologies will express a luciferase protein, originally isolated from the firefly, Photinus pyralwas. FLuc was commonly used in mammalian cell culture to measure both gene expression and cell viability. It emits bioluminescence in the presence of the substrate, luciferin. This capped and polyadenylated mRNA was fully substituted with 5-methylcytidine and pseudouridine.
Compounds of structure (I) were formulated using the following molar ratio: 47.5% cationic lipid/10% dwastearoylphosphatidylcholine (DSPC)/40.8% Cholesterol/1.7% PEG lipid (“PEG-DMA” 2-[2-(ω-methoxy(polyethyleneglycol2000)ethoxy]-N,N-ditetradecylacetamide). Relative activity was determined by measuring luciferase expression in the liver 4 hours following administration via tail vein injection as described in Example 1. The activity was compared at a dose of 0.3 and 1.0 mg mRNA/kg and expressed as ng luciferase/g liver measured 4 hours after administration, as described in Example 1.
The cationic lipids shown in Table 2 have previously been tested with nucleic acids. For comparative purposes, these lipids were also used to formulate lipid nanoparticles containing the FLuc mRNA (L-6107) using an in line mixing method, as described in Example 1 and in PCT/US10/22614, which is hereby incorporated by reference in its entirety. […]

[4] = Table 3, lipid formulated in LNP, TNS assay

SMILES | pKa [1, 4] | Liver Luc (ng luc/g liver), dosed at 0.5 mg/kg [2] | pKa [1] | Relative activity in the luciferase assay relative to MC3 ([3]; luciferase expression in liver 4 hours after tail vein injection, 47.5/10/40.8/1.7 formulation with PEG-DMA) | Liver Luc @ 0.3 mg/kg (ng luc/g liver) [3] [ng luc/g liver] | Liver Luc @ 1.0 mg/kg (ng luc/g liver) [3] [ng luc/g liver]
CCCCCCCCC(CCCCCC)COC(=O)CCCCCCCN(CCCCCCCC(=O)OCC(CCCCCC)CCCCCCCC)CCCCOCC(O)C(O)COCCCCN(CCCCCCCC(=O)OCC(CCCCCC)CCCCCCCC)CCCCCCCC(=O)OCC(CCCCCC)CCCCCCCC (stereo not shown) [Compound 1] | 6.18 | 174 ± 43* ng luc/g liver |  |  |  | 
CCCCCCCCC(CCCCCC)COC(=O)CCCCCN(CCCCCC(=O)OCC(CCCCCC)CCCCCCCC)CCCOCC(O)C(O)COCCCN(CCCCCC(=O)OCC(CCCCCC)CCCCCCCC)CCCCCC(=O)OCC(CCCCCC)CCCCCCCC (stereo not shown) [Compound 2] |  |  | 6.14 | 4.4 | 1225 ± 159 | 4876 ± 1273
CCCCCCCCC(CCCCCC)COC(=O)CCCCCN(CCCCCC(=O)OCC(CCCCCC)CCCCCCCC)CCCOCCOCCOCCCN(CCCCCC(=O)OCC(CCCCCC)CCCCCCCC)CCCCCC(=O)OCC(CCCCCC)CCCCCCCC (stereo not shown) [Compound 3] | 5.3 |  |  |  | 33 ± 9 | 99 ± 41
CCCCCCCCC(CCCCCC)COC(=O)CCCCCC(CCCCCC(=O)OCC(CCCCCC)CCCCCCCC)NCCCOCCOCCOCCCNC(CCCCCC(=O)OCC(CCCCCC)CCCCCCCC)CCCCCC(=O)OCC(CCCCCC)CCCCCCCC (stereo not shown) [Compound 4] |  |  | 7.2 |  |  | 
CCCCCCCCC(CCCCCC)C(=O)OCCCCCCCCCC(CCCCCCCCCOC(=O)C(CCCCCC)CCCCCCCC)OC(=O)CCCCNCCCCN(C)CCCCC(=O)OC(CCCCCCCCCOC(=O)C(CCCCCC)CCCCCCCC)CCCCCCCCCOC(=O)C(CCCCCC)CCCCCCCC (stereo not shown) [Compound 5] |  |  | 4.24 |  |  | 
CCCCCCCCC(CCCCCC)COC(=O)CCCCCN(CCCCCC(=O)OCC(CCCCCC)CCCCCCCC)CCCN(C)CCCN(CCCCCC(=O)OCC(CCCCCC)CCCCCCCC)CCCCCC(=O)OCC(CCCCCC)CCCCCCCC (stereo not shown) [Compound 6] | 5.81 |  |  |  | 92 ± 13 | 169 ± 46
CCCCCCC(CCCC)COC(=O)CCCCCN(CCCCCC(=O)OCC(CCCC)CCCCCC)CCCN(C)CCCN(CCCCCC(=O)OCC(CCCC)CCCCCC)CCCCCC(=O)OCC(CCCC)CCCCCC (stereo not shown) [Compound 7] | 5.91 |  |  |  | 590 ± 98 | 2473 ± 443
CCCCCCCCC(CCCCCC)COC(=O)CCCCCC(CCCCCC(=O)OCC(CCCCCC)CCCCCCCC)NCCCOCCOCCOCCCN(CCCCCC(=O)OCC(CCCCCC)CCCCCCCC)CCCCCC(=O)OCC(CCCCCC)CCCCCCCC (stereo not shown) [Compound 8] | 6.53 | 479 ± 163* ng luc/g liver |  |  |  | 
